# Data reported in ChEMBL document CHEMBL3621138, “Aminothiazoles: Hit to lead development to identify antileishmanial agents” (Eur J Med Chem, 2015).
# Columns and labels:
# [1] = Metabolic stability in golden Syrian hamster liver microsomes assessed as drug metabolism at 0.5 uM incubated for 30 mins in presence of NADPH; assay type: ADME, Mesocricetus auratus; conditions: read-out: Drug metabolism
# [2] = Metabolic stability in CD1 mouse liver microsomes assessed as drug metabolism at 0.5 uM incubated for 30 mins in presence of NADPH; assay type: ADME; conditions: read-out: Drug metabolism
# [3] = Tmax in Swiss Albino mouse at 25 mg/kg, po by LC-MS/MS method; assay type: ADME, organism-based; conditions: in vivo
# [4] = Cmax in Swiss Albino mouse at 1 mg/kg, iv by LC-MS/MS method; assay type: ADME, organism-based; design: dose 1 mg/kg, route intravenous; conditions: in vivo
# [5] = Cmax in Swiss Albino mouse at 25 mg/kg, po by LC-MS/MS method; assay type: ADME, organism-based; design: dose 25 mg/kg, route oral; conditions: in vivo
# [6] = AUClast in Swiss Albino mouse at 1 mg/kg, iv by LC-MS/MS method; assay type: ADME, organism-based; design: dose 1 mg/kg, route intravenous, time 0 - last; conditions: in vivo
# [7] = AUClast in Swiss Albino mouse at 25 mg/kg, po by LC-MS/MS method; assay type: ADME, organism-based; design: dose 25 mg/kg, route oral, time 0 - last; conditions: in vivo
# [8] = AUC (infinity) in Swiss Albino mouse at 25 mg/kg, po by LC-MS/MS method; assay type: ADME, organism-based; design: dose 25 mg/kg, time infinity, route oral; conditions: in vivo
# [9] = AUC (infinity) in Swiss Albino mouse at 1 mg/kg, iv by LC-MS/MS method; assay type: ADME, organism-based; design: dose 1 mg/kg, time infinity, route intravenous; conditions: in vivo
# [10] = Terminal half-life in Swiss Albino mouse at 1 mg/kg, iv by LC-MS/MS method; assay type: ADME, organism-based; conditions: in vivo, read-out: beta t1/2 (converted)
# [11] = Clearance in Swiss Albino mouse at 1 mg/kg, iv by LC-MS/MS method; assay type: ADME, organism-based; conditions: in vivo, read-out: CLH
# [12] = Volume of distribution at steady state in Swiss Albino mouse at 1 mg/kg, iv by LC-MS/MS method; assay type: ADME, organism-based; conditions: in vivo, read-out: Vdss
# [13] = Oral bioavailability in Swiss Albino mouse at 1 mg/kg by LC-MS/MS method; assay type: ADME, organism-based; conditions: in vivo
# [14] = Cmax in Swiss Albino mouse at 50 mg/kg, po by LC-MS/MS method; assay type: ADME, organism-based; design: dose 50 mg/kg, route oral; conditions: in vivo
# [15] = Tmax in Swiss Albino mouse at 50 mg/kg, po by LC-MS/MS method; assay type: ADME, organism-based; conditions: in vivo
# [16] = AUClast in Swiss Albino mouse at 50 mg/kg, po by LC-MS/MS method; assay type: ADME, organism-based; design: dose 50 mg/kg, time 0 - last, route oral; conditions: in vivo
SMILES,"metabolised at 0.5 h, 0.5 µM [1]","metabolised at 0.5 h, 0.5 µM [2]",further results
COc1cccc(-c2csc(Nc3ccc(Cl)cn3)n2)n1,100%,75%,
COc1ccc(Nc2nc(-c3cccnc3)cs2)cc1,96%,96%,
COc1ccc(Nc2nc(-c3ncccn3)cs2)cc1,81%,99%,
COc1ccnc(-c2csc(Nc3ccc(Cl)cn3)n2)c1,100%,97%,
COc1ccc(-c2csc(Nc3ccc(Cl)cn3)n2)nc1,100%,97%,
FC(F)(F)c1ccc(-c2csc(Nc3ccc(Cl)cn3)n2)nc1,98%,63%,
CCOc1ccc(-c2csc(Nc3ccc(Cl)cn3)n2)nc1,10%,62%,Tmax [3]: 15 min; Cmax [4]: 885 ng/mL; Cmax [5]: 167 ng/mL; AUC(0-t) [6]: 178 ng·h/mL; AUC(0-t) [7]: 362 ng·h/mL; AUC(0-inf) [8]: 377 ng·h/mL; AUC(0-inf) [9]: 183 ng·h/mL; half-life [10]: 28.8 min; clearance [11]: 91 mL/min/kg; Vd [12]: 1.99 L/kg; bioavailability [13]: 8%
Clc1ccc(Nc2nc(-c3ccccn3)c(Cl)s2)nc1,100%,93%,
COc1ccnc(-c2nc(Nc3ccc(Cl)cn3)sc2Cl)c1,100%,90%,
COc1ccc(-c2nc(Nc3ccc(Cl)cn3)sc2Cl)nc1,100%,92%,
FC(F)(F)c1ccc(-c2nc(Nc3ccc(Cl)cn3)sc2Cl)nc1,63%,30%,
CCOc1ccc(-c2nc(Nc3ccc(Cl)cn3)sc2Cl)nc1,87%,56%,
Clc1ccc(Nc2nc(-c3cccnn3)cs2)nc1,99%,95%,
Clc1ccc(Nc2nc(-c3cccnn3)c(Cl)s2)nc1,99%,70%,
Clc1ccc(Nc2nc(-c3ncccn3)cs2)nc1,100%,99%,
Clc1ccc(Nc2nc(-c3ncccn3)c(Cl)s2)nc1,99%,71%,
Clc1ccc(Nc2nc(-c3cnccn3)cs2)nc1,99%,99%,
Clc1ccc(Nc2nc(-c3cnccn3)c(Cl)s2)nc1,78%,47%,
Clc1ccc(Nc2nc(-n3cccn3)cs2)nc1,100%,100%,
c1ccc(Nc2nc(-c3ccccn3)cs2)nc1,100%,100%,
COc1ccc(Nc2nc(-c3ccncc3)cs2)cc1,98%,83%,

# Now from value to compound, other results behind:
"metabolised at 0.5 h, 0.5 µM [1]","metabolised at 0.5 h, 0.5 µM [2]",SMILES,further results
100%,100%,Cc1cccc(Nc2nc(-c3ccccn3)cs2)n1,
100%,100%,Cc1ccc(Nc2nc(-c3ccccn3)cs2)cc1C,
100%,100%,COc1ccc(Nc2nc(-c3ccccn3)cs2)cc1,
99%,98%,CN(C)c1ccc(Nc2nc(-c3ccccn3)cs2)cc1,
100%,99%,c1ccc(-c2csc(Nc3ccc4c(c3)OCCO4)n2)nc1,
100%,100%,COc1ccc(Nc2nc(-c3ccccn3)cs2)cc1OC,
99%,100%,COc1ccc(Nc2nc(-c3ccccn3)cs2)nc1,
100%,100%,Cc1ccc(Nc2nc(-c3ccccn3)cs2)cc1,Cmax [14]: 108 ng/mL; Tmax [15]: 15 min; AUC(0-t) [16]: 99.8 ng·h/mL
99%,99%,Cc1ccnc(Nc2nc(-c3ccccn3)cs2)c1,
100%,100%,Cc1cccnc1Nc1nc(-c2ccccn2)cs1,
100%,100%,Cc1ccc(Nc2nc(-c3ccccn3)cs2)nc1,
100%,100%,Clc1ccc(Nc2nc(-c3ccccn3)cs2)nc1,
